Measured values taken from US4962125A, “Novel substance KS-619-1, preparation process and pharmaceutical composition” (Kyowa Hakko Kogyo, Co., Ltd., priority 1984, dated 1990).

Tests used:
[1] = tested on: rabbit mesenteric arteries; test: Inhibition of KCl-induced contraction of surface-perfused, extirpated mesenteric arteries; assay type: cell-based, White bastard rabbits
Experimental: (1) Preparation of surface-perfused, extirpated mesenteric arteries
White bastard rabbits (male, 2-3 kg) were incised along the abdominal median line. […] The strips were ligated with silk yarn at both ends, and the lower end was connected to a stationary rod, whereas the upper end was connected to a […] transducer (SB-1T, product of Nippon Koden Co., Ltd.). Thus, the strips were suspended under an initial tension of 1.5 g. The preparation was kept at 37°±1° C. by means of peristaltic pump (Harvard 1210), while a gas (95% O2 and 5% CO2) was introduced therein. The surface of the preparation was perfused with a Krebs-Henseleit solution whose composition in g/l was NaCl: 6.92, KCl: 0.35, MgSO4.7H2 O: 0.29, CaCl2 : 0.28, KH2 PO4 : 0.16, NaHCO3 : 2.1 and glucose: 2.0 at a flow rate of 10 ml/min. After the preparation was stabilized for 1 to 2 hours, it was used for the experiment. Potassium chloride as a blood vessel-contracting substance was injected into flow of the perfusion solution through a cannula provided just before the preparation so that potassium chloride can have the ultimate concentration of 20 mM. The resulting contraction reaction was recorded on a polygraph (RM-45, product of Nippon Koden Co. Ltd.) in equal scales through the tension transducer. KS-619-1 was dissolved in ethanol to a concentration of 20 mg/ml, and the solution was properly diluted with a nutrient liquor and then continuously perfused from 10 minutes before the application of the contracting substance till the end of contraction reaction.
^(a) Inhibition percentage of contraction was calculated according to […]

[2] = Acute toxicity (LD50) in mice; details: mouse, in vivo
Experimental: The acute toxicity (LD50) of KS-619-1 in mice is more than 300 mg/kg·p.o. and more than 100 mg/kg·i.p.

[3] = Solubility; assay type: physicochemical

SMILES: CC(=O)Cc1cc2c(c(O)c1C(=O)O)-c1cc3c(c(O)c1CC2)C(=O)c1c(O)cc(O)cc1C3=O [KS-619-1]
- inhibition at 0.3 µg/mL ([1]; Oryctolagus cuniculus, KS-619-1 0.3 μg/ml (ultimate concentration), contracting substance potassium chloride 20 mM, read-out: Inhibition percentage of contraction): 33%
- inhibition at 1 µg/mL ([1]; Oryctolagus cuniculus, KS-619-1 1.0 μg/ml (ultimate concentration), contracting substance potassium chloride 20 mM, read-out: Inhibition percentage of contraction): 67%
- inhibition of contraction of rabbit mesenteric arteries (in words) ([1]; potassium chloride 20 mM, 0.3 and 1.0 μg/ml): inhibited the contraction of rabbit mesenteric arteries, depending on the concentration
- LD50 ([2]; ip): > 100 mg/kg
- LD50 ([2]; po): > 300 mg/kg
- Solubility ([3]; in acetic acid): readily soluble
- Solubility ([3]; in chloroform and water): sparingly soluble
- Solubility ([3]; in methanol, ethanol, acetone, ethyl acetate and butanol): soluble
